# Assay results taken from a melting point compilation (Tetko et al.; mined from patent text by program, amines drawn as free bases though some values may be those of a salt).
row,SMILES,melting point
1,COC(=O)c1cc(I)cc(OC)c1O,104 °C
2,COc1ccc(C(=O)O)cc1CCCN(C)C,135 to 138 °C
3,COC(=O)NCc1cc(C(C)=NO)ccc1Cl,124 to 127 °C
4,COC(=O)c1ccc(S(=O)(=O)N2CC[C@H](OS(C)(=O)=O)C2)n1C,79 to 81 °C
5,Clc1n[nH]c2cccc(NC3=NCCN3)c12,245 to 250 °C
6,CCOC(=O)c1cnn2ccc3c(c12)CCO3,138 to 139 °C
7,CSc1ncncc1C(O)c1ccccc1F (stereo not given),176 to 177 °C
8,Cc1nc2cc3c(cc2c(=O)[nH]1)CCC3,284 °C
9,O=S1(=O)NC(c2ccccc2)Nc2c(Br)cc(Br)cc21 (stereo not given),186 to 189 °C
10,CCN(CC)CCCC(=O)O,45 to 47 °C
11,O=C(CO)Nc1cc(-c2ccncc2)c[nH]c1=O,271 to 274 °C
12,N#Cc1c(Br)c(Br)n(O)c1-c1ccc(Cl)cc1,208 to 209 °C
13,CCCOC(=O)c1cncn1C(c1ccccc1)c1ccccc1,81 °C
14,Cc1cc(-c2ccccc2)nn2cnnc12,150 to 151 °C
15,CCN(CC)C(=O)OC1c2ccccc2C(=O)N1c1ccc2ccc(Cl)nc2n1 (stereo not given),142 to 144 °C
16,CN1CCC(c2nn(CO)c3ccccc23)CC1,128 to 130 °C
17,COc1cc(Cc2cnc(N)nc2N)ccc1N,210 to 212 °C
18,CCCCCCCCOC(=O)C(N)C=CCP(=O)(O)O (stereo not given),161 to 162 °C
19,CN=C(NCc1ccccc1)NN=Cc1c(Cl)cccc1Cl,84 to 86 °C
20,CCOC(C)=C(C#N)C(=O)c1ccc(F)cc1,77 °C
21,CC1CCc2c(Cl)c(Cl)cc3c(=O)c(C(=O)O)cn1c23 (stereo not given),269 to 271 °C
22,CN(C)C(C)(C)C(N)=O,109 to 111 °C
23,O=C1C=CC(OC2CCCC2)N1 (stereo not given),81 to 82 °C

row,SMILES,melting point
1,N#CCC(=O)Nc1ccnn1-c1c(Cl)cc(C(F)(F)F)cc1Cl,169 to 175 °C
2,CC(C)(C)OC(=O)CC(=O)c1cc2ccccc2cc1O,80 to 84 °C
3,N#CCc1cc([N+](=O)[O-])c(F)cc1Cl,67 to 68 °C
4,CC(=O)N(CCC(CCN1CCCCC1)(C(N)=O)c1ccccc1Cl)C(C)C (stereo not given),141 to 147 °C
5,CCCCOc1nc(N)c2ncn(C3CCCCC3)c2n1,138 to 141 °C
6,CC(=C(c1ccccc1)c1ccccc1)P(C1CCCCC1)C1CCCCC1,128 to 130 °C
7,COc1cc(C)c2c(Cl)c(OC)cc([N+](=O)[O-])c2n1,199 to 200 °C
8,N#CC1(c2ccc(F)cc2)CCC(N2CCN(c3cccnn3)CC2)CC1 (stereo not given),189 °C
9,CCCCCCCCCCNC(=S)Nc1ccc(NNC=O)cc1,150 to 152 °C
10,CCN1CCCC(c2ccc(OC)c(OC)c2)C1 (stereo not given),50 °C
11,CC(=O)Nc1cc(Cl)c([N+](=O)[O-])cc1CCOC(C)=O,153 °C
12,CCOC(=O)Nc1cc(I)c(NS(C)(=O)=O)cc1OC,153 to 155 °C
13,CC12CCC3C(C=CC4=CC(=O)CCC43CO)C1CCC2C(=O)CO (stereo not given),161 to 164 °C
14,COC(=O)CNC(=O)n1ccc(O)cc1=O,124 to 126 °C
15,COc1ccc(C(=O)C2CCC(CCO)CC2)cc1O (stereo not given),107 to 109 °C
16,Cc1nn(-c2c(Cl)cc(S(=O)(=O)C(F)(F)F)cc2Cl)nc1-c1nc(C#N)c(C#N)[nH]1,244 to 245 °C
17,N[C@@H](C/C(=C\C1CC1)C(=O)O)C(=O)O,204 °C
18,ON=C1CCC(c2ccc(Cl)c(Cl)c2)c2ccccc21 (stereo not given),159 to 162 °C
19,CC(N)c1cc(NC(=O)OC(C)(C)C)ccc1NC(=O)OC(C)(C)C (stereo not given),170 °C
20,CC(=O)[C@@H]1CC[C@@H](C)C[C@H]1O,46 to 46.5 °C
21,CS(=O)(=O)N[C@@H]1CCCC[C@H]1Nc1nc(Nc2ccc3c(c2)CN(CCO)CCS3)ncc1Cl,76 to 86 °C
22,CC[C@@H]1COC(=O)N1c1nc(-c2ccc(C#N)cc2)cs1,153 to 157 °C

# Results, then the molecule that gave them:
row,melting point,SMILES
1,216 to 218 °C,Cc1cccc(C)c1NC(=O)NC1CC(C)(C)c2ccccc2C1(C)C (stereo not given)
2,86 to 88 °C,CCON=Cc1ccccc1OCc1ccccc1C(=COC)C(=O)OC
3,115 to 117 °C,C=CCOc1ccc(C(=O)C=Cc2cccnc2)c(O)c1
4,118 to 119 °C,CCOCc1cc2cc(Br)ccc2oc1=O
5,227 to 236 °C,O=C(Nc1cc(Cl)ccc1OCc1nnn[nH]1)c1cc(-c2ccc(Cl)cc2)oc1C(F)(F)F
6,321 to 325 °C,CC(C)NC1=NS(=O)(=O)c2ccc(CC(N)=O)cc2N1
7,101 °C,COC(=O)c1ccccc1S(=O)(=O)NC(=O)c1cc(C)on1
8,138 °C,O=c1c2ccccc2c(-c2ccccc2)cn1CCCCl
9,51 °C,CCCCCCc1ccc(-c2ccc(OC(=O)C3(C#N)CCCC(C)C3)cc2)cc1 (stereo not given)
10,238 °C,CCCCNCCCOc1ccc(-c2ccc(C(=O)O)cc2)cc1-c1ccc2c(c1)C(C)(C)CCC2(C)C
11,161 to 162 °C,CC(=O)N(C)c1ccc(C(=O)N2CCN(CCc3ccc(Br)cc3)CC2)cc1
12,146 to 147 °C,COC(=O)c1cc(OCc2ccc(OCc3nc(-c4ccco4)oc3C)c(OC)c2)nn1-c1ccccc1
13,197 to 198 °C,COc1cc(OC)c2c(=O)cc(-c3cc[nH]n3)oc2c1
14,85 to 88 °C,C#CCSc1nc(Cl)cc(NCc2ccc(Cl)cc2)n1
15,170 °C,c1ccc(CSc2nc3cc4ccccc4cc3[nH]2)nc1
16,91 to 92 °C,C=C(C)C1(CC(C)C)CCN(C(Cc2ccccc2)C(=O)NC)C1=O (stereo not given)
17,169 to 170 °C,O=C1N(Cc2ccncc2)Cc2cccnc2N1c1cccc([N+](=O)[O-])c1
18,216 °C,Cc1cc(C2=NN(C(=S)Cl)[C@H](C)Cc3cc4c(cc32)OCO4)cc(C)c1[N+](=O)[O-]
19,208 to 210 °C,COc1nc2ccc(Br)cc2c2c1C(=O)c1ccccc1-2
20,187 to 190 °C,COc1ccc(/C=C/c2nc3ccccc3c(=O)o2)cc1OC(C)=O
21,112 to 114 °C,CS(=O)(=O)Nc1cc([N+](=O)[O-])ccc1Oc1ccccc1
22,133 to 135 °C,NC(=O)CC[C@H](NC(=O)c1ccc(OCc2ccccc2)cc1OCc1ccccc1)C(=O)N1CCN(Cc2ccccc2)CC1
23,202 to 204 °C,Cn1nc(-c2cccc(N3Cc4cc(C(C)(C)C)ccc4C3=O)c2CO)cc(Nc2ccn(C3CNC3)n2)c1=O
24,106 to 107 °C,CCOC(=O)N1CCC(=C2c3ccccc3CCc3cccnc32)CC1
25,92 to 94 °C,Cc1cc(SC2=C(O)CC(CCc3cccc(O)c3)(CCc3cccc(O)c3)OC2=O)c(C(C)(C)C)cc1CO
26,122 °C,CN1CCN(c2ccccc2OCc2cc(CCC(=O)O)c3c(c2)CC(NS(=O)(=O)c2ccc(Cl)cc2)CC3)CC1 (stereo not given)
27,41 to 43 °C,COc1cccc(CSCCNC(=O)c2c(OC)cccc2OC)c1
28,68 to 70 °C,CCOC(=O)c1nc(-c2cccc3ccccc23)no1

row,melting point,SMILES
1,267 to 269 °C,CC(C)(C)OC(=O)Nc1ccc(-c2c[nH]c(=O)cn2)cc1
2,144 °C,O=C(C=Cc1ccc(O)c(O)c1O)OCCc1ccccc1
3,323 to 325 °C,Cn1c(=O)n2nc(-c3ccc(Cl)cc3)nc2c2ccccc21
4,134 to 138 °C,O=C1COc2cc(OCc3c(F)cccc3F)ccc21
5,201 to 203 °C,NS(=O)(=O)c1ccc(-c2cnn(Cc3c(F)cc(F)cc3F)c(=O)c2-c2ccc(F)cc2)cc1
6,87 to 92 °C,CC(C)C[C@@H](C=O)NC(=O)[C@H](Cc1c[nH]cn1)NC(=O)C(CCCCc1ccccc1)Cc1cccc2ccccc12 (stereo not given in full)
7,151 to 152 °C,CCOc1ccc(-c2noc3c(Cl)c(OC)ccc23)c(F)c1
8,240 to 244 °C,O=c1[nH]c2nc(SCc3ccccc3)ncc2cc1Oc1ccc(F)cc1F
9,224 to 226 °C,CC(=O)NC[C@H]1CN(c2ccc(C(=O)c3cnc4ccc(F)cn34)cc2)C(=O)O1
10,135 to 136 °C,CCOC(=O)c1[nH]c(-n2ccc(OCc3ccccc3)cc2=O)nc1C
11,199 to 200 °C,Cc1nnc(-c2ccc3occ(-c4ccc(S(C)(=O)=O)c(F)c4)c3c2)o1
12,262 to 263 °C,O=C(Nc1cnc2c(c1)nc1n2CCCC1)c1cc2cc(C(F)(F)F)ccc2n1Cc1cccc(F)c1
13,210 to 212 °C,CCN1Cc2c(cc3ccc4c(c3c2-c2ccc3c(c2)OCO3)OCO4)C1=O
14,220 to 222 °C,Cc1ccc(N2CCN(Cc3c[nH]c4ncccc34)CC2)cc1
15,132 to 134 °C,Cc1cc(SCCc2ccc(-c3ccc(C(F)(F)F)cc3)cc2)ccc1OCC(=O)O
16,280 °C,COc1ccc(-c2[nH]nc3c2C(=O)c2c(NC(=O)NNC(=O)c4ccccc4O)cccc2-3)cc1
17,213 to 216 °C,CC(C)(C)OC(=O)n1nc(-c2cc3ccc(OCCCN4CCCC(O)C4)cc3n2C(=O)OC(C)(C)C)c2sc(-c3ccccc3)cc21 (stereo not given)
18,104 °C,CC/C(=C\C=C\C(O)(C(F)(F)F)C(F)(F)F)c1cccc(CCc2ccc(CO)c(CO)c2)c1
19,195 to 196 °C,CCOC(=O)c1c(Cn2ccnn2)nc2cc(OC)c(OC)cc2c1-c1ccc(OC)c(OC)c1
20,124 to 126 °C,CCCCOc1ccc(S(=O)(=O)N2CCN(C)CC2)cc1-c1nc2cc3nc[nH]c3cc2c(=O)[nH]1
21,160 to 162 °C,CNc1ccc(Cl)c(C(=O)Nc2cccc3c4c(oc23)CCCC4)c1Cl
22,247 to 248 °C,CCc1noc(-c2ncc3[nH]c4ccc(C5CC=CCC5)cc4c3c2C)n1 (stereo not given)
23,137 to 139 °C,CCC(CC)n1cc(C)nc(N2CCc3cc(Cl)cc(Cl)c32)c1=O
24,147 to 149 °C,CCN1C(=O)C(C)(C)C(=O)N(C)c2cc(CN(CCn3ccc4oc(C)cc4c3=O)Cc3cccnc3C=O)ccc21
25,256 to 258 °C,CCNc1nc2cccc(C(=O)OC)c2n1Cc1ccc(-c2ccccc2-c2nnn[nH]2)cc1
26,91 to 111 °C,COc1cc2c(cc1Nc1ncc(Cl)c(Nc3cccc(N4CCOCC4)c3)n1)CCN(CC(=O)N(C)C)CC2
27,217 to 219 °C,NC(=O)[C@@H]1[C@H](Nc2c(Br)cnc3[nH]c(-c4ccc(CN5CCOCC5)cc4)nc23)[C@H]2C=C[C@@H]1C2
